These results are taken from article PMC12539867, “Systematic identification of terpene synthases from sacred lotus (Nelumbo nucifera) and heterologous biosynthesis of the insecticidal and antimicrobial compound γ-eudesmol” (Horticulture Research, 2025).

The test system of assay [1] is T1, NnTPS10.
T1 construct: TPS-a; 565 residues; codon-optimised; purified from E. coli for kinetics; S. cerevisiae JCR27 for mutants; N314, L530, V537; D461-Y537-D541 triad also printed
The assay is described as follows: steady-state kinetics, purified enzyme. It counts as biochemical, Nelumbo nucifera. As to conditions: 25 °C, pH 7.5.

In assay [2] the target is T2, NnTPS5 (Nelumbo nucifera, UniProt A0A822ZHR2).
T2 construct: gene HUJ06_002290; codon-optimised; S. cerevisiae JCR27 with NnTPS6 or NnTPS7 and GGPPS
T2 sequence (A0A822ZHR2 41-812): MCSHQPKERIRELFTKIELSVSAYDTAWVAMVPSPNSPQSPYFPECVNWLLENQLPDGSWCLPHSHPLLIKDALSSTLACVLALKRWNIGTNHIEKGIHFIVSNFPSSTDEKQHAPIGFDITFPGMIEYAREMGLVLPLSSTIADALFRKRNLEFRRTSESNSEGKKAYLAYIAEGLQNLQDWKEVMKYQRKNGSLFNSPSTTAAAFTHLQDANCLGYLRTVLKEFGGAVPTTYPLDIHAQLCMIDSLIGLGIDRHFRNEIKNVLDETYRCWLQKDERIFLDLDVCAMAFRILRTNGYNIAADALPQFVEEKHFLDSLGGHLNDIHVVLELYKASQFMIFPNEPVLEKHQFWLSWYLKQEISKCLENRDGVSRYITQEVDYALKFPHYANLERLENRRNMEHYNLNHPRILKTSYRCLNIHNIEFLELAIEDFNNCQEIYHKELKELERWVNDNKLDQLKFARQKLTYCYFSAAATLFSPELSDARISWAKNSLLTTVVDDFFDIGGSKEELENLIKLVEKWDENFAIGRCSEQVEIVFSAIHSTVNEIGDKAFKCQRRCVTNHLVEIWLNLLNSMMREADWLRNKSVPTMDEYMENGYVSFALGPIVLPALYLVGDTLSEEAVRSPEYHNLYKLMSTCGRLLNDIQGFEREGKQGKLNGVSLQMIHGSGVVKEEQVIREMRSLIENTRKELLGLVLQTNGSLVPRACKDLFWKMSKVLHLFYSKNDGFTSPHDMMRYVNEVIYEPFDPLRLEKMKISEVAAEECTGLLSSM
The assay is described as follows: yeast co-expression with GGPPS and NnTPS6 or NnTPS7, GC-MS of ent-kaurene. Type of assay: cell-based. As to conditions: substrate formed in the cell.

The term Km denotes the concentration of substrate that gives half-maximal velocity. On to `CC(C)=CCC/C(C)=C/CC/C(C)=C/COP(=O)(O)OP(=O)(O)O` [FPP], for which, in assay [1], the Km is 16.7 µM.
In the case of `C=C1CC[C@@H]2C(C)(C)CCC[C@@]2(C)[C@@H]1CC/C(C)=C/COP(=O)(O)OP(=O)(O)O` [ent-CPP], in assay [2], the “yeast co-expression with GGPPS and NnTPS6 or NnTPS7, GC-MS of ent-kaurene” value is “combining NnTPS6, NnTPS5, and GGPPS, a new product (D1) can be identified as ent-kaurene”.
